kcat/Km, Km and kcat data for seven compounds are collected here from ChEMBL document CHEMBL1153262, “Polyketide synthase thioesterases catalyze rapid hydrolysis of peptidyl thioesters” (Bioorg Med Chem Lett, 2009).

Test [1] can be described thus: Ratio of kcat/km of PKS TEs assessed as hydrolysis of 6-deoxyerythronolide-B.
Test [2] is described as follows: Ratio of kcat/km of PKS TEs assessed as hydrolysis of pimaricin.
Test [3] in a line: Ratio of kcat/km of PKS TEs assessed as hydrolysis of epothilone.
A short description of test [4]: Activity at PKS TEs assessed as hydrolysis of epothilone.
The nature of test [5]: Activity at PKS TEs assessed as hydrolysis of pimaricin.

The kcat/Km is the second-order rate constant that governs catalysis at low substrate concentration. Regarding `CC(=O)NCCSC(=O)CNC(=O)OC(C)(C)C`, the results for the kcat/Km in test [1], in test [2] and in test [3] were 7 M⁻¹ s⁻¹, 1.29 M⁻¹ s⁻¹ and 145 M⁻¹ s⁻¹, respectively.

For the compound `CC(=O)NCCSC(=O)[C@H](C)NC(=O)OC(C)(C)C`, the figures for the catalytic efficiency (kcat/Km) in test [1] and in test [3] were 0.88 M⁻¹ s⁻¹ and 91.3 M⁻¹ s⁻¹, respectively.

By Km is commonly meant the concentration of substrate that gives half-maximal velocity. A word on the kcat: it is the maximal rate divided by the concentration of active sites. Consider `CC(=O)NCCSC(=O)CNC(=O)[C@H](C)NC(=O)OC(C)(C)C`, for which, in test [1], the kcat/Km came to 0.39 M⁻¹ s⁻¹. Also, the kcat/Km in test [3] was 110 M⁻¹ s⁻¹. In test [4], the Km amounted to 2900 µM and the kcat worked out at 19.2 min⁻¹.

Regarding `CC(=O)NCCSC(=O)CCNC(=O)c1ccccc1`, the kcat/Km in test [1] was determined as 7.75 M⁻¹ s⁻¹; in test [2] it was 1.14 M⁻¹ s⁻¹; in test [3], 24.2 M⁻¹ s⁻¹.

Consider `CC(=O)NCCSC(=O)[C@@H](C)NC(=O)OC(C)(C)C`, for which the kcat/Km came out at 0.5 M⁻¹ s⁻¹ in test [1] and 12.5 M⁻¹ s⁻¹ in test [3].

Regarding `CC(=O)NCCSC(=O)CNC(=O)[C@@H](C)NC(=O)OC(C)(C)C`, the kcat/Km in test [1] came out at 0.8 M⁻¹ s⁻¹. In test [3], the kcat/Km came out at 38.8 M⁻¹ s⁻¹. Moreover, in test [4], the Km was determined as 1300 µM and the kcat is 3.1 min⁻¹.

For the compound `CC(=O)NCCSC(=O)CCCCCCNC(=O)OC(C)(C)C`, the values for the Km in test [5] and in test [4] were 800 µM and 400 µM, respectively. Moreover, the kcat in test [5] turned out to be 1.2 min⁻¹; in test [4], 1.82 min⁻¹. Moreover, the kcat/Km in test [1] was found to be 1.47 M⁻¹ s⁻¹; in test [2] it was 23.3 M⁻¹ s⁻¹; in test [3] it was 75.1 M⁻¹ s⁻¹.
